Experimental data published in a melting point compilation (Tetko et al.; mined from patent text by program, amines drawn as free bases though some values may be those of a salt).

Row | SMILES | melting point [°C]
1 | CS(=O)(=O)Nc1c(C(=O)c2cccc(Cl)c2)[nH]c2ccc(Cl)cc12 | 220 to 221
2 | N#CC1=C(C2CCCCCC2)Nc2n[nH]cc2C1c1ccccc1Cl (configuration not stated) | 146
3 | O=C1Nc2ccc(Cl)cc2C2(c3cccs3)OCCN12 (configuration not stated) | 193 to 194
4 | CN1CCC(CC(=O)N2c3ccccc3NC(=O)c3cscc32)CC1 | 184 to 185
5 | O=C(NC(Cc1ccc(OCc2ccc(C(F)(F)F)cc2)cc1)C(=O)O)c1cn2ccc(-c3ccc(Cl)cc3)cc2n1 (configuration not stated) | 263
6 | CC[C@@H](c1ccccc1)N(Cc1ccc(C(=O)OC)cc1OC)S(=O)(=O)c1ccc(Cl)cc1 | 108 to 110
7 | Cc1cccc2c1CCn1cc(-c3ccccc3)nc1C2OC1CCN(C)CC1 (configuration not stated) | 71
8 | NC(=O)c1ccc(CCCNCC(O)c2ccccc2)cc1 (configuration not stated) | 106 to 108
9 | Cc1cc(C)n(-c2nc(Nc3ccc(Cl)cc3)cc(N3CCOCC3)n2)n1 | 186 to 187
10 | Oc1ccc(Nc2ccc3cc(Br)ccc3c2)cc1 | 179 to 180
11 | CCn1c(=O)oc2cc(N)ccc21 | 72 to 74
12 | CC1(C)CC(=O)c2c(nc(C3CCCC3)c(C(=O)c3ccc(C(F)(F)F)cc3)c2-c2ccc(F)c(F)c2)C1 | 210 to 212
13 | COc1ccc2c(c1OCC#N)CCCC2 | 50 to 51
14 | O=[N+]([O-])c1cc2c(cc1Oc1ccccc1)CCC2 | 41
15 | N#Cc1nc(C#N)c(C#N)nc1C#N | 274 to 276
16 | CCn1c(C(O)(C(C)C)C(C)C)nc(-c2ccncc2)c1-c1ccc(Cl)cc1 | 221 to 223
17 | O=C(/C=C/[C@@H]1[C@H]2CC(=O)O[C@H]2C[C@H]1OC(=O)c1ccc(-c2ccccc2)cc1)CCc1ccccc1 | 129 to 130
18 | CCOC(=O)Cc1c[nH]c2nc(Nc3ccc(OC(C)C)cc3)nn2c1=O | 235 to 240
19 | O=[N+]([O-])c1cc(C(F)F)cc2nc(C(F)(F)F)[nH]c12 | 132 to 134
20 | CC(C)c1cccc(C(C)C)c1NC(=O)C(C)C1c2ccccc2Oc2ccccc21 (configuration not stated) | 210 to 211
21 | O=C(CC1C(=S)Nc2ccccc21)NCc1ccccc1 (configuration not stated) | 193 to 195
22 | CCOC(=O)C1=C(C)NC(=S)N(C(=O)c2ccc([N+](=O)[O-])cc2)C1c1cccc([N+](=O)[O-])c1 (configuration not stated) | 139 to 141
23 | COc1ccc(COC(=O)C2N=CSCC2(C)O)cc1 (configuration not stated) | 102 to 103
24 | Nc1cccnc1NCc1ccc(Cl)cc1 | 123 to 125
25 | Cn1c(=O)n(Cc2ccc(F)cc2)c(=O)c2cc(C(=O)c3nc(-c4cccnc4)c4ccccn34)ccc21 | 207
26 | N#Cc1ccc(Cn2cc(C#N)nn2)cc1 | 93.5 to 94

Row | SMILES | melting point [°C]
27 | O=c1c(CCCO)c(O)c2cccnc2n1-c1ccccc1 | 218 to 220
28 | NC(Cc1cccc2ccccc12)(C(=O)O)C1CC(C(=O)O)C1 (configuration not stated) | 189 to 191
29 | CCCS(=O)(=O)n1ccc2ccc(N=C3NCCN3)cc21 | 213
30 | CC(CCc1ccccc1)NCC(O)c1cc(C(N)=O)c2[nH]ccc2c1 (configuration not stated) | 94 to 100
31 | COC(=O)[C@]1(OS(C)(=O)=O)C[C@H](CC(C)C)[C@@H]2O[C@@H]2C1 | 120 to 121
32 | CCCN(CCC)c1c(CC)nn2c(-c3ccc(OC)cc3Cl)cccc12 | 73.6 to 76
33 | Cn1c(C(F)(F)F)nn(-c2cc(NS(C)(=O)=O)c(C#N)cc2F)c1=O | 67
34 | Cc1cn(C(C)(C)C(=O)N(C)C)nc1-c1cc(Cl)ccc1Cl | 130
35 | CC(=O)c1csc(C(=O)C2C(=O)N(C(N)=O)c3ccc(Cl)cc32)c1 (configuration not stated) | 230 to 233
36 | COc1cc(OCC(=O)N[C@@H]2CCN(Cc3ccccc3)C2)ccc1C=NNC(=O)c1ccc(O)c(N)c1 | 157 to 160
37 | CC(=O)CC(=O)NC(=O)C(C)C | 148 to 160
38 | CC(=Cc1ccccc1)c1ccc2c(c1)C(C)(C)CCS2(=O)=O | 156 to 158
39 | Cc1cc(Oc2c(Cl)cc(C(F)(F)F)cc2Cl)nn1C(=O)NCC=O | 111 to 113
40 | O=C1CC2(CCCC2)c2ccc([N+](=O)[O-])cc21 | 104
41 | CC(C)(C)OC(=O)N1C(=O)O[C@@H](c2cccc(Cl)c2)[C@H]1Cc1ccc(CC(F)(F)C(F)(F)F)cc1 (racemic) | 136 to 138
42 | CCOC(=O)C(NC(=O)OC(C)(C)C)c1csc(NC(=O)CCl)n1 (configuration not stated) | 192 to 193
43 | COCOc1cc(CO)n(Cc2ccc(Cl)cc2Cl)n1 | 82 to 83
44 | CC(C)(C)OC(=O)N1CCC(c2nc3cc(-c4ccc(S(C)(=O)=O)cc4F)ccc3o2)CC1 | 144 to 147
45 | CNC(=S)Nc1cc(C)ccc1N1CCOCC1 | 107
46 | O=C(O)n1ccc2c(OCc3ccccc3)c(Cc3ccccc3)ccc21 | 181 to 183
47 | COc1cc(C(=O)O)cc2ccc(-c3ccc4c(c3)C(C)(C)CCC4(C)C)cc12 | 242
48 | O=C(CCl)Nc1ccc(NC(=O)CCl)c2c1C(=O)c1ccccc1C2=O | 221
49 | CCOC(=O)CC1CCCc2cc(O)c(C(=O)c3ccccc3)cc21 (configuration not stated) | 118 to 120
50 | CCOC(=O)c1cc2cc(-c3ccc(OC(F)(F)F)cc3)ccc2n1Cc1ccc(C)cc1 | 77 to 78
51 | CC(C)c1cccc(C(C)C)c1NC(=O)CC(=O)C1(c2ccccc2)CCCC1 | 145 to 147
52 | N#CC1(C2CCCc3ccccc32)CC1 (configuration not stated) | 91 to 93

Row | SMILES | melting point [°C]
53 | C=CCNC(=O)C=Cc1cn(C)nc1[N+](=O)[O-] | 143 to 146
54 | COC(=O)c1nc2n(n1)-c1ccccc1N(c1cccc(C)c1C)C2 | 170 to 172
55 | N#CCCNC(=O)C1=CC(CF)(CF)Oc2cc(Cl)c(Cl)cc21 | 135 to 136
56 | CCn1cc(CC(=O)OC)c(O)n1 | 72 to 73
57 | O=C(Nc1ccccc1-c1nnc(CSCCOc2ccccc2)o1)N1CCCC1 | 184 to 185
58 | Cc1oc(-c2ccccc2)nc1Cc1cc2cc(C=O)ccc2o1 | 116 to 118
59 | CCOC(=O)C(=CNc1sc(Cl)cc1C(=O)OC)C(=O)OCC | 89.5 to 90.5
60 | CCSc1nc(-c2ccc(OC)cc2)c(-c2ccc(OC)cc2)[nH]1 | 108 to 109
61 | CN1C(=O)C(=O)C(c2ccc(Cl)cc2)Sc2ccccc21 (configuration not stated) | 124 to 126
62 | CCOC(=O)CC(c1ccccc1)N(C(=O)CNC(=O)Nc1cccc(C)c1)c1ccccc1 (racemic) | 146
63 | CCn1nc2c(cc1=O)CCSc1sc(Br)cc1-2 | 149 to 151
64 | Nc1ccc(C2=Nn3ccnc3Cc3cc4c(cc32)OCO4)cc1 | 264 to 265
65 | CN1C(=O)CCC(C)(C)c2cc(Nc3ncc(Cl)c(N[C@@H]4CCCC[C@H]4NS(C)(=O)=O)n3)ccc21 | 165
66 | Cc1c(Sc2ccc(Cl)cc2)nn(-c2ccccc2)c(=O)c1C#N | 180 to 182
67 | CCCSc1ncc(CC(Cc2ccccc2)C(=O)O)n1Cc1ccccc1Cl (configuration not stated) | 123 to 127
68 | COC(=O)CCc1ccc(OCc2cccc(-c3cccc(CO)c3)c2)cc1 | 185 to 188
69 | CCOC(=O)c1nc(NC(C)=O)sc1Cc1ccccc1 | 178 to 180
70 | CC[C@H]1CN(c2ccc(-c3ccnc(Nc4cc(OC)c(OC)c(OC)c4)n3)cn2)CCN1 | 82 to 83
71 | N#CC(O)C1(F)CCN(C(=O)c2ccc(F)c(Cl)c2)CC1 (configuration not stated) | 139 to 140
72 | COc1ccc(Cn2c3c(ccc2=O)C(C)NC(SC)=N3)cc1Cl (configuration not stated) | 184 to 186
73 | O=C1NC(=O)C(Cc2ccccc2)N1 (configuration not stated) | 187 to 189
74 | C[C@@H](Cn1ncc2ccc3c(c21)O[C@@H](CO)CO3)NC(=O)OCc1ccccc1 | 116 to 117
75 | COc1cccc(CCNC(=O)N(C)O)c1OC | 83 to 85
76 | COc1ccc2c(OC)c(C(C)C)cc(OC)c2c1 | 80 to 81.5
77 | OC(c1ccc(Cl)cc1)(c1ccccc1F)C1CO1 (configuration not stated) | 120 to 122
78 | CC(C)Nc1c(-c2ccc(S(C)(=O)=O)cc2)cnn(Cc2ccccc2)c1=O | 146 to 147

Row | SMILES | melting point [°C]
79 | CCc1ccc2ccc(N)nc2n1 | 170 to 172
80 | NC(C(=O)O)C(=CF)c1c[nH]c2ccc(O)cc12 (configuration not stated) | > 250
81 | C=CCn1c(Br)c(C[C@H](NC(C)=O)C(=O)OC)c2c(Br)c(OC)c(Br)cc21 | 191 to 192
82 | CS(=O)(=O)[C@H]1CN(Cc2ccccc2)C[C@@H]1S(C)(=O)=O | 56.5
83 | O=C(Nc1ccc2c(c1)OC(F)(F)O2)NC12CC3CC(CC(C3)C1)C2 | 213 to 215
84 | COc1ccc(S(=O)(=O)Oc2cccc(OS(=O)(=O)c3ccc(OC)cc3)c2)cc1 | 81 to 84
85 | O=C(CCc1cc2ccccc2s1)N1C(=O)OC[C@@H]1Cc1ccccc1 | 119 to 122
86 | CC(=O)OCc1cn(C)c2ccccc2c1=O | 142 to 146
87 | C[Si](C)(CCCc1nnc(N)nc1O)c1ccccc1 | 250 to 252
88 | NC(=O)N1CCN(c2nn(-c3ccccc3F)c3ccccc23)CC1 | 148 to 150
89 | CCn1ncc2c1ncc1c(=O)[nH]c3nc(S(C)=O)nn3c12 (configuration not stated) | > 300
90 | CCOC(=O)Cc1c(C)n(Cc2cccc(O)c2)c2ccc(OC)cc12 | 114 to 116
91 | N#Cc1cc(C(=O)NNC(=O)c2occc2-c2ccccc2O)ccc1O | 135 to 140
92 | Nc1nc(-c2ccc(CNC(=O)c3cccnc3)s2)cs1 | 240 to 241
93 | CCCCc1nn(CCC)c(C(=O)O)c1Cc1ccc(C2(C(=O)O)CC=CC2)s1 | 121 to 122
94 | S=S1N=C2SCSC2=N1 | 99
95 | Clc1cccc2c1CCCC2c1c[nH]cn1 (configuration not stated) | 165 to 169
96 | CC(C)C1(c2ccccc2OCCCCBr)C(=O)N(C)c2ccccc21 (configuration not stated) | 98 to 100
97 | COC(=O)c1ccnc(N2CCN(Cc3ccc(F)cc3)C2=O)c1 | 119 to 121
98 | O=C(C=Cc1ccncc1)c1cccs1 | 150 to 152
99 | Cc1cc2c(cc1C(C)O)OCO2 (configuration not stated) | 61 to 62
100 | O=Cc1c[nH]c2cc(C(=O)NCC3CCCC3)ccc12 | 224 to 225
101 | Cc1nc2cc(OCc3ccccc3)c(OCc3ccccc3)cc2nc1C(=O)O | 198 to 200
102 | O=c1cc(-c2ccc(OCCOCCOc3ccc(-c4cc(=O)c5c(O)cc(O)cc5o4)cc3)cc2)oc2cc(O)cc(O)c12 | 268 to 270
